Literature values, collected in patent US20260373135A1, “Methods of Treatment with Tradipitant” (Vanda Pharmaceuticals Inc., priority 2022, published 2026).

Tests used:
CYP3A4 [1] = target: T1, CYP3A4 (Homo sapiens, UniProt P08684); settings: breast cancer patients; n=16 *22, n=116 wt; cited from earlier work
CYP3A4 [2] = target: T1, CYP3A4; settings: renal transplant patients; cited from earlier work
CYP3A4 [3] = target: T1, CYP3A4; settings: human liver microsomes in vitro; cited from earlier work

T1 sequence (P08684 whole entry): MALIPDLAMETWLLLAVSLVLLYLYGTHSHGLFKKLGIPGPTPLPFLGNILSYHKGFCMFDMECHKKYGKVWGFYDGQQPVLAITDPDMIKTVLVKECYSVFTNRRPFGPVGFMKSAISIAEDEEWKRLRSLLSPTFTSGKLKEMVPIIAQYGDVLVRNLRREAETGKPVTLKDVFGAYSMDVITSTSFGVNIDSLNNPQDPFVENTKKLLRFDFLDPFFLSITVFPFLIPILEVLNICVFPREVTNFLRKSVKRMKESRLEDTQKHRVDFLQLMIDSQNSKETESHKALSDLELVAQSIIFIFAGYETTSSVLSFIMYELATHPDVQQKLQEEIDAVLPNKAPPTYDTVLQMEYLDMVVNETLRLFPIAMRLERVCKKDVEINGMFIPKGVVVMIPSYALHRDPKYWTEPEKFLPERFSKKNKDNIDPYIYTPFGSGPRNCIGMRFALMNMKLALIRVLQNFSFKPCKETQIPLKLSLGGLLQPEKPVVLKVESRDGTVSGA

SMILES	clearance in CYP3A4*22 carriers (CYP3A4 [2])	further results
CC/C(=C(\c1ccc(O)cc1)c1ccc(OCCNC)cc1)c1ccccc1 [Endoxifen]		blood concentrations in CYP3A4*22 carriers vs *1/*1 (CYP3A4 [1]): increased
CO[C@H]1C[C@@H]2CC[C@@H](C)[C@@](O)(O2)C(=O)C(=O)N2CCCC[C@H]2C(=O)O[C@H]([C@H](C)C[C@@H]2CC[C@@H](OCCO)[C@H](OC)C2)CC(=O)[C@H](C)/C=C(\C)[C@@H](O)[C@@H](OC)C(=O)[C@H](C)C[C@H](C)/C=C/C=C/C=C/1C [everolimus]	lower clearance	
CO[C@H]1C[C@@H]2CC[C@@H](C)[C@@](O)(O2)C(=O)C(=O)N2CCCC[C@H]2C(=O)O[C@H]([C@H](C)C[C@@H]2CC[C@@H](O)[C@H](OC)C2)CC(=O)[C@H](C)/C=C(\C)[C@@H](O)[C@@H](OC)C(=O)[C@H](C)C[C@H](C)/C=C/C=C/C=C/1C [sirolimus]		metabolic rate with CYP3A4*22 (CYP3A4 [3]): lower
C=CC[C@@H]1/C=C(\C)C[C@H](C)C[C@H](OC)[C@H]2O[C@@](O)(C(=O)C(=O)N3CCCC[C@H]3C(=O)O[C@H](/C(C)=C/[C@@H]3CC[C@@H](O)[C@H](OC)C3)[C@H](C)[C@@H](O)CC1=O)[C@H](C)C[C@@H]2OC [tacrolimus]	reduced	
